One compound from patent US7884244B2, “Therapeutic fluoroethylcyano guanidines” (Allergan, Inc., priority 2007, dated 2011) can be followed below.

Molecules are shown by their SMILES.

Type in all cases: cell-based
Assay [1] concerns the target T1, alpha2A receptor (Homo sapiens, UniProt P08913).
T1 construct: expressed in transfected cells; host or cells: NIH-3T3 cells
T1 sequence (P08913 1-465): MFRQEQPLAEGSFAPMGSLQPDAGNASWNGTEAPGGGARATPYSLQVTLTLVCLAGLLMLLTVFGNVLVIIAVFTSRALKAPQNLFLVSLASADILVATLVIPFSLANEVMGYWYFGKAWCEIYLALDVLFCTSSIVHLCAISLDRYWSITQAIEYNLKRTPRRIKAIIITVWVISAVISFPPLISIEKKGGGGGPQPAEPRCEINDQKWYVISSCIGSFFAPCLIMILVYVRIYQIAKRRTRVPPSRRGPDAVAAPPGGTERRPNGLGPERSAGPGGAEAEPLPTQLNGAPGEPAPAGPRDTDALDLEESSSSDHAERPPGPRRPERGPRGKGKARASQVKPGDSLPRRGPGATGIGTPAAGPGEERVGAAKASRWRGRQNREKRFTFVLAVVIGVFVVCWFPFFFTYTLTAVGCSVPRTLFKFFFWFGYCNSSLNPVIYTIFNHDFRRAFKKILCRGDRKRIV
Description: Receptor Selection and Amplification Technology (RSAT) assay, alpha2A. As to the method: (§1) The RSAT assay measures a receptor-mediated loss of contact inhibition that results in selective proliferation of receptor-containing cells in a mixed population of confluent cells. The increase in cell number is assessed with an appropriate transfected marker gene such as […]-galactosidase, the activity of which can be easily measured in a 96-well format. Receptors that activate the G protein, Gq, elicit this response. Alpha2 receptors, which normally couple to Gi, activate the RSAT response when coexpressed with a hybrid Gq protein that has a Gi receptor recognition domain, called Gq/i5.
(§2) NIH-3T3 cells are plated at a density of 2×10^6 cells in 15 cm dishes and maintained in Dulbecco's modified Eagle's medium supplemented with 10% calf serum. One day later, cells are cotransfected by calcium phosphate precipitation with mammalian expression plasmids encoding p-SV-[…]-galactosidase (5-10 μg), receptor (1-2 μg) and G protein (1-2 μg). 40 μg salmon sperm DNA may also be included in the transfection mixture. Fresh media is added on the following day and 1-2 days later, cells are harvested and frozen in 50 assay aliquots. Cells are thawed and 100 μl added to 100 μl aliquots of various concentrations of drugs in triplicate in 96-well dishes. Incubations continue 72-96 hr at 37° C. After washing with phosphate-buffered saline, […]-galactosidase enzyme activity is determined by adding 200 μl of the chromogenic substrate (consisting of 3.5 mM o-nitrophenyl-[…]-D-galactopyranoside and 0.5% nonidet P-40 in phosphate buffered saline), incubating overnight at 30° C. and measuring optical density at 420 nm. The absorbance is a measure of enzyme activity, which depends on cell number and reflects a receptor-mediated cell proliferation. The efficacy or intrinsic activity is calculated as a ratio of the maximal effect of the drug to the maximal effect of a standard full agonist for each receptor subtype. Brimonidine, also called UK14304, the chemical structure of which is shown below, is used as the standard agonist for the alpha2A, alpha2B and alpha2C receptors. The EC50 is the concentration at which the drug effect is half of its maximal effect.
(§3) The results of the RSAT assay with several exemplary compounds of the invention are disclosed in Table 1 above together with the chemical formulas of these exemplary compounds. EC50 values are nanomolar. NA stands for “not active” at concentrations less than 10 micromolar. IA stands for “intrinsic activity.”

In assay [2] the target is T2, alpha2B receptor (Homo sapiens, UniProt P18089).
T2 construct: expressed in transfected cells; host or cells: NIH-3T3 cells
T2 sequence (P18089 1-450): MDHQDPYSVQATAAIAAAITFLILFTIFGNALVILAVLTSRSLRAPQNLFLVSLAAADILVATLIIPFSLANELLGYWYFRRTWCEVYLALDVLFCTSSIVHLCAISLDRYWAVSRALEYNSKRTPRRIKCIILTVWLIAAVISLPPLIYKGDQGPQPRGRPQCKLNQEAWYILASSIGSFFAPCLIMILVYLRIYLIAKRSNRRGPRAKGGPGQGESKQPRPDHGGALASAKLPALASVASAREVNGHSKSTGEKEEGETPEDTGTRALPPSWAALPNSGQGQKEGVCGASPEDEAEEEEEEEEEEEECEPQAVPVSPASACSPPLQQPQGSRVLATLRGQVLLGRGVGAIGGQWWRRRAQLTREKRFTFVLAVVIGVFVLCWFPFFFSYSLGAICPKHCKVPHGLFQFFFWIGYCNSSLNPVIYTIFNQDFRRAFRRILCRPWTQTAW
Description: Receptor Selection and Amplification Technology (RSAT) assay, alpha2B. The method, then: as §1, §2, §3

For assay [3], the target named is T3, alpha2C receptor (Homo sapiens, UniProt P18825).
T3 construct: expressed in transfected cells; host or cells: NIH-3T3 cells
T3 sequence (P18825 1-462): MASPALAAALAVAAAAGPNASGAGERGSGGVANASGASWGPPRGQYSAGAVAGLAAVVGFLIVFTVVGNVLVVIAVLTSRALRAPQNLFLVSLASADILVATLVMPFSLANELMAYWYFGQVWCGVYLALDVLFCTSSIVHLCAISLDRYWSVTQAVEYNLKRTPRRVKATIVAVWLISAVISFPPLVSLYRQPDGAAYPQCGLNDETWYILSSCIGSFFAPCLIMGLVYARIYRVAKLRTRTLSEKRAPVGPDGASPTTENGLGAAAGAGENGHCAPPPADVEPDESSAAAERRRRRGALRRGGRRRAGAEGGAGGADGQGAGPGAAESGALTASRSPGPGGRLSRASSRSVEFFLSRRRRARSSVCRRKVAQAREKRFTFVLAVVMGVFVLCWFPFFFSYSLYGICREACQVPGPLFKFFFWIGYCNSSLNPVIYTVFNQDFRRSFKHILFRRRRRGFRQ
Description: Receptor Selection and Amplification Technology (RSAT) assay, alpha2C. The method, then:
as §1, §2, §3

[4] abbreviates: ratio of maximal effect of drug to maximal effect of standard full agonist brimonidine (UK14304).

For orientation: EC50 means the concentration needed to bring the measured effect to its halfway point. With `Cc1cccc2c1CC[C@@H]2N/C(=N\C#N)NCCF`, the EC50 amounted to 0.759 µM in assay [1] (RSAT, transfected NIH-3T3 cells with Gq/i5, not active = not active at concentrations less than 10 micromolar, read-out: Alpha 2A EC50); 0.0601 µM in assay [2] (RSAT, transfected NIH-3T3 cells with Gq/i5, not active = not active at concentrations less than 10 micromolar, read-out: Alpha 2B EC50); 1.53 µM in assay [3] (RSAT, transfected NIH-3T3 cells with Gq/i5, not active = not active at concentrations less than 10 micromolar, read-out: Alpha 2C EC50). In addition, the “Alpha 2A IA (intrinsic activity)” value in assay [1] (setting [4]) is 0.35. Further, the “Alpha 2B IA (intrinsic activity)” value in assay [2] (setting [4]) is on record as 1.09. Besides, the “Alpha 2C IA (intrinsic activity)” value in assay [3] (setting [4]) is 0.46.
